Test systems include M14; OVCAR-4; HCT-15; SNB-19; HL-60; UO-31; SF-539; NCI-H23; DLD-1; ACHN; Malme-3M; U-251; HCC 2998; KM12; OVCAR-5; NCI-H460; CAKI-1; HOP-92; BT-549; MDA-N.
Experiment in all cases: DTP human tumour cell line panel, 48 h

Structures are written as SMILES.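 Exposure lasted 48 hours, with cells grown in 96-well plates and compounds tested at five concentrations. GI50 is the concentration that inhibits growth by half.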 Active and inactive are the calls of the source. Cut-off read from the data, not from the text of the source: active = GI50 up to about 1.1 µM and inactive = higher. Some results are limits rather than exact numbers.

As a reminder, the GI50 is the concentration that inhibits growth by half. For the compound `Brc1ccc(-c2cc3c(cc2C2SCCS2)OCO3)cc1`, the GI50 with M14 was 41.6 µM (inactive); in the assay with OVCAR-4, 21.6 µM (inactive); with HCT-15, 29.7 µM; with SNB-19 it was 55.5 µM (inactive); with HL-60, 15.4 µM (inactive); with UO-31, 18.1 µM (inactive). The GI50 in the assay with SF-539 was 11.5 µM (inactive); in the assay on NCI-H23, 39.2 µM (inactive); in the assay on DLD-1, 31.5 µM (inactive); in the assay with ACHN it was 16.5 µM (inactive); with Malme-3M it was 45.1 µM (inactive); in the assay on U-251 it was 29.7 µM (inactive). The GI50 is 29 µM (inactive) in the assay on HCC 2998, 39.4 µM (inactive) in the assay on KM12, 16.6 µM (inactive) in the assay on OVCAR-5 and 29.6 µM (inactive) in the assay on NCI-H460.

Regarding `Cc1ccc(S(=O)(=O)N/N=C/CN2C(=O)c3ccccc3C2=O)cc1`, the GI50 with CAKI-1 was > 100 µM (inactive); in the assay with M14 it was > 100 µM (inactive); in the assay with OVCAR-4, > 100 µM (inactive); with HCT-15, greater than 100 µM; with SNB-19, > 100 µM (inactive); in the assay on HL-60 it was > 100 µM (inactive). The GI50 with UO-31, in the assay with SF-539, in the assay on NCI-H23, in the assay on DLD-1, in the assay with ACHN and with Malme-3M was > 100 µM (inactive) each time. Also, the GI50 with U-251, with HCC 2998 and with NCI-H460 was > 100 µM (inactive) in each case.

With `CNC(=O)C1CCc2nnc(-c3ccccc3)n21` (stereo not given), the GI50 with CAKI-1 was > 100 µM (inactive); in the assay with M14 it was > 100 µM (inactive); in the assay with OVCAR-4, > 100 µM (inactive); in the assay with HCT-15, greater than 100 µM; in the assay on SNB-19, > 100 µM (inactive); in the assay on HL-60 it was > 100 µM (inactive). Also, the GI50 in the assay with UO-31, with SF-539, with DLD-1, in the assay on ACHN, in the assay with Malme-3M and in the assay on U-251 was > 100 µM (inactive) throughout. For the same compound, the GI50 in the assay with HCC 2998, in the assay with KM12 and in the assay with NCI-H460 was > 100 µM (inactive) in each case.

For the compound `COc1ccc(/C=C2\CCc3ccccc3C2=O)cc1OC`, the GI50 in the assay with CAKI-1 is 31.6 µM (inactive); with M14, 22.4 µM (inactive); in the assay with OVCAR-4, 17.8 µM (inactive); in the assay on HCT-15, 17.2 µM; in the assay on SNB-19, 46 µM (inactive); in the assay on UO-31, 29.2 µM (inactive). The GI50 is 22.3 µM (inactive) in the assay with SF-539; 19.6 µM (inactive) with NCI-H23; 21.9 µM (inactive) in the assay on DLD-1; 24.5 µM (inactive) in the assay with ACHN; 38.3 µM (inactive) in the assay on Malme-3M; 31 µM (inactive) with U-251. The GI50 is 45.5 µM (inactive) in the assay with HCC 2998, 19.6 µM (inactive) with KM12, 67.3 µM (inactive) in the assay on OVCAR-5 and 34.8 µM (inactive) with NCI-H460.

As to `N#C[BH2-][n+]1cn(C2CC(O)C(COP(=O)(O)OC3CC(n4cnc5c(N)ncnc54)OC3CO)O2)c2nc(N)[nH]c(=O)c21` (stereo not given), the GI50 in the assay on CAKI-1 is > 100 µM (inactive); in the assay with M14 it was > 100 µM (inactive); in the assay on OVCAR-4, > 100 µM (inactive); in the assay on HCT-15, greater than 100 µM; in the assay on SNB-19 it was > 100 µM (inactive); in the assay on HL-60, > 100 µM (inactive). Moreover, the GI50 in the assay with UO-31, in the assay with SF-539, with HOP-92, with NCI-H23, in the assay on ACHN and in the assay with Malme-3M was > 100 µM (inactive) each time. Further, the GI50 in the assay on BT-549, in the assay with MDA-N, in the assay on U-251, in the assay with HCC 2998, in the assay with KM12 and with OVCAR-5 was > 100 µM (inactive) each time. For the same compound, in the assay with NCI-H460, the GI50 was > 100 µM (inactive).

`COc1ccccc1C1C2=C(COC2=O)OC(C)(C)Oc2cc3c(cc21)OCO3` (stereo not given): the GI50 in the assay with CAKI-1 was 3.33 µM (inactive); in the assay on M14 it was 3.18 µM (inactive); with OVCAR-4, 10.3 µM (inactive); with HCT-15, 3.23 µM; with SNB-19 it was 3.8 µM (inactive); in the assay with HL-60 it was 1.35 µM (inactive). Moreover, the GI50 in the assay with UO-31 is 10 µM (inactive); with SF-539, 2.74 µM (inactive); in the assay on HOP-92, 8.65 µM (inactive); with NCI-H23, 3.89 µM (inactive); in the assay on ACHN, 7.91 µM (inactive); in the assay with Malme-3M, 3.89 µM (inactive). The GI50 is > 10 µM (inactive) with BT-549; 0.65 µM (active) with MDA-N; 3.85 µM (inactive) in the assay on U-251; 7.29 µM (inactive) in the assay with HCC 2998; 1.11 µM (active) in the assay on KM12; 13.4 µM (inactive) with OVCAR-5. Further, the GI50 in the assay with NCI-H460 is 3.6 µM (inactive).

As for `O=C1Nc2c(Cl)cc(Cl)cc2C1=O`, the GI50 in the assay on CAKI-1 is 17.9 µM (inactive); in the assay with M14, 19.6 µM (inactive); with OVCAR-4, 17.8 µM (inactive); in the assay with HCT-15 it was 20.6 µM; in the assay on SNB-19, > 100 µM (inactive); with HL-60 it was 2.4 µM (inactive). Moreover, the GI50 in the assay on UO-31 is 19.3 µM (inactive); with SF-539, 17.2 µM (inactive); in the assay with HOP-92 it was 24.1 µM (inactive); with NCI-H23, 23.5 µM (inactive); in the assay on ACHN, 34.2 µM (inactive); in the assay on Malme-3M, 1.94 µM (inactive). In addition, the GI50 is 18 µM (inactive) in the assay with BT-549; 8.99 µM (inactive) in the assay with MDA-N; 21.2 µM (inactive) in the assay on U-251; 34.7 µM (inactive) with HCC 2998; 30.5 µM (inactive) with KM12; 20.7 µM (inactive) with OVCAR-5. The GI50 in the assay with NCI-H460 is 21 µM (inactive).

For `OC1(c2cccs2)c2cccc(Cl)c2C(O)(c2cccs2)c2c(Cl)cccc21` (stereo not given), the GI50 in the assay with CAKI-1 was > 100 µM (inactive); in the assay on M14, > 100 µM (inactive); in the assay on OVCAR-4, > 100 µM (inactive); with HCT-15, greater than 100 µM; with SNB-19, 33.2 µM (inactive); with HL-60, > 100 µM (inactive). In addition, the GI50 with UO-31 was > 100 µM (inactive); in the assay on SF-539 it was 37 µM (inactive); with HOP-92, 93.1 µM (inactive); in the assay on NCI-H23 it was 54.6 µM (inactive); in the assay with ACHN it was > 100 µM (inactive); with Malme-3M, 80.2 µM (inactive). The GI50 in the assay on BT-549 was 35.6 µM (inactive); in the assay on MDA-N, > 100 µM (inactive); in the assay with U-251, 26.6 µM (inactive); with HCC 2998 it was > 100 µM (inactive); with KM12, > 100 µM (inactive); in the assay on OVCAR-5, > 100 µM (inactive). In addition, in the assay on NCI-H460, the GI50 was > 100 µM (inactive).

As for `Cc1cccc(C(C)(C)C)c1NC(=O)/C(Cc1nc2ccc([N+](=O)[O-])cc2nc1O)=N\NC(=O)C[N+](C)(C)C`, the GI50 with CAKI-1 was > 100 µM (inactive); in the assay on M14, > 100 µM (inactive); in the assay on OVCAR-4 it was > 100 µM (inactive); in the assay with HCT-15, greater than 100 µM; with SNB-19, > 100 µM (inactive); in the assay on HL-60, > 100 µM (inactive). The GI50 was 37.8 µM (inactive) with UO-31; > 100 µM (inactive) in the assay on SF-539; 47.2 µM (inactive) with HOP-92; > 100 µM (inactive) with NCI-H23; > 100 µM (inactive) in the assay on ACHN; > 100 µM (inactive) in the assay on Malme-3M. The GI50 is 38.5 µM (inactive) with BT-549; > 100 µM (inactive) with MDA-N; > 100 µM (inactive) in the assay on U-251; > 100 µM (inactive) with HCC 2998; 47.1 µM (inactive) in the assay on KM12; > 100 µM (inactive) in the assay on OVCAR-5. Also, the GI50 with NCI-H460 was > 100 µM (inactive).

As to `CC1=CC(=O)[C@@H](O)[C@]2(C)[C@H]3[C@@]4(O)OC[C@]35[C@H]([C@@H](C)[C@H]4O)[C@@H](OC(=O)C(C)(C)CO)C(=O)O[C@@H]5C[C@@H]12`, the GI50 with CAKI-1 is 1.08 µM (active); in the assay on M14 it was < 0.0431 µM (active); in the assay with OVCAR-4, 0.122 µM (active); in the assay on HCT-15, 0.292 µM; in the assay with SNB-19, 0.05 µM (active); in the assay with HL-60, 0.0243 µM (active). In addition, the concentration for 50% growth inhibition (GI50) in the assay with UO-31 is 0.316 µM (active); in the assay with SF-539 it was < 0.0153 µM (active); in the assay on HOP-92, 0.0887 µM (active); in the assay on NCI-H23, < 0.0179 µM (active); in the assay on ACHN it was 0.208 µM (active); in the assay with Malme-3M, < 0.01 µM (active). Also, the GI50 with BT-549 is 0.0428 µM (active); with MDA-N it was 0.0769 µM (active); in the assay on U-251 it was 0.0281 µM (active); in the assay on HCC 2998 it was 0.0476 µM (active); in the assay with KM12 it was < 0.0271 µM (active); with OVCAR-5 it was 0.701 µM (active). The GI50 in the assay on NCI-H460 was 0.0568 µM (active).

For the compound `CC(C(N)=O)N(C)C(=O)c1cc2ccccc2[n+](Cc2ccccc2)c1` (stereo not given), the GI50 with CAKI-1 was > 100 µM (inactive); in the assay on M14 it was > 100 µM (inactive); in the assay on OVCAR-4, > 100 µM (inactive); in the assay on HCT-15, greater than 100 µM; with SNB-19 it was > 100 µM (inactive); with HL-60, > 100 µM (inactive). The GI50 in the assay on UO-31, with SF-539, with HOP-92, in the assay with NCI-H23, in the assay with ACHN and in the assay with Malme-3M was > 100 µM (inactive) in each case. For the same compound, the GI50 in the assay on BT-549, in the assay on MDA-N, in the assay with U-251, in the assay with HCC 2998, in the assay on KM12 and in the assay with OVCAR-5 was > 100 µM (inactive) each time. Further, the GI50 in the assay with NCI-H460 was > 100 µM (inactive).

Source of the values: ChEMBL document CHEMBL1201862, “PubChem BioAssay data set” (2004).
